Assay results: patent US20250243171A1, “QUINAZOLINE COMPOUNDS FOR TREATMENT OF DISEASE” (Arthrosi Therapeutics, Inc., priority 2021, published 2025)

How the values were obtained:
Experiment in all cases: EC50 assay: Ba/F3 stable cell proliferation (CCK-8, 72 h)
Format in all cases: cell-based
Ba/F3 stable cells [1] = target: T1, Ba/F3 stable cells (Homo sapiens, UniProt P00533, DUP767-769, cells depend on it); details: Ba/F3-EGFR V769-D770insASV cells
T1 construct: EC50 Ba/F3-EGFR V769-D770insASV; other: Ba/F3-EGFR V769-D770insASV cells, 72 h, CCK-8
Procedure, shortened: (§1)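 Ba/F3 stable cells were seeded at 4,000 cells/90 μL/well in 96-well plates and held 2 h at 37° C. in 5% CO2, then given 10 μL of serially titrated compound (0.1% DMSO final). After 72 h at 37° C., CCK-8 reagent was added for 4 hours and absorbance read at 450 nm to derive EC50.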

Ba/F3 stable cells [2] = target: T2, Ba/F3 stable cells (Homo sapiens, UniProt P00533, INS763FQEA, cells depend on it); details: Ba/F3-EGFR A763-Y764insFQEA cells
T2 construct: EC50 Ba/F3-EGFR A763-Y764insFQEA; other: Ba/F3-EGFR A763-Y764insFQEA cells, 72 h, CCK-8
T2 sequence (P00533 with tags, fused parts or gaps INS763FQEA): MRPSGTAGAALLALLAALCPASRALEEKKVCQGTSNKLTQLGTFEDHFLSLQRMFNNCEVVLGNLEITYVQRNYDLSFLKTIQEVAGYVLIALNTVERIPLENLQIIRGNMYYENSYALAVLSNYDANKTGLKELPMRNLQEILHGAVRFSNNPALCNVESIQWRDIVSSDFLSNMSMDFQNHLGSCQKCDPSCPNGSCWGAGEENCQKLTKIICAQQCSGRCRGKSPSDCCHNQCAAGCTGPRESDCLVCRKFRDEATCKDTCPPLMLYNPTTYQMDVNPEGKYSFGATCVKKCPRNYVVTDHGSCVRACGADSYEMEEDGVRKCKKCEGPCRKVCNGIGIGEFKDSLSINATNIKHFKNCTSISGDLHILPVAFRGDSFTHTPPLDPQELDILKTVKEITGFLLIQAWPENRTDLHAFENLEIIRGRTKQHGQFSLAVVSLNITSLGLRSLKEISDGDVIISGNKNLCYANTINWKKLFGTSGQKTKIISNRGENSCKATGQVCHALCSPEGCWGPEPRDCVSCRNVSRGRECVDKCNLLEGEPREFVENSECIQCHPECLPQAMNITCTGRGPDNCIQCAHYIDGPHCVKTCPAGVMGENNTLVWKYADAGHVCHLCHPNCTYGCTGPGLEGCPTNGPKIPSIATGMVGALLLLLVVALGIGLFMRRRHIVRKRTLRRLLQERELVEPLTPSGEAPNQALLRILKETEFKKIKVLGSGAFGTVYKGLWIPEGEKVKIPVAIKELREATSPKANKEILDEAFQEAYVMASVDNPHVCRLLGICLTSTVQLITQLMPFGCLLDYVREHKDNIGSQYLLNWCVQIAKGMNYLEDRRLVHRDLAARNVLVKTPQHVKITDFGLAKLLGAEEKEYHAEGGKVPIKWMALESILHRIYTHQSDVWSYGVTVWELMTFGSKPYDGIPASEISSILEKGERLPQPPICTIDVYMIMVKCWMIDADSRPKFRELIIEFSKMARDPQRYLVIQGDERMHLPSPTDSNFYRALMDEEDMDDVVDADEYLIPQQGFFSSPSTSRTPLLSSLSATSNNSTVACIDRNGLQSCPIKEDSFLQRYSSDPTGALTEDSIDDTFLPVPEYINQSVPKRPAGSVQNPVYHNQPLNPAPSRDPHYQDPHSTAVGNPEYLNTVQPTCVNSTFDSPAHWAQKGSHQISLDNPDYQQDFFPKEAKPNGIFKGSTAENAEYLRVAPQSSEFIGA
Procedure, shortened: as §1

Ba/F3 stable cells [3] = target: T3, Ba/F3 stable cells (Homo sapiens, UniProt P00533, T790M/L858R, cells depend on it); details: Ba/F3-EGFR L858R-T790M cells
T3 construct: EC50 Ba/F3-EGFR L858R-T790M; other: Ba/F3-EGFR L858R-T790M cells, 72 h, CCK-8
T3 sequence (P00533 whole entry T790M/L858R): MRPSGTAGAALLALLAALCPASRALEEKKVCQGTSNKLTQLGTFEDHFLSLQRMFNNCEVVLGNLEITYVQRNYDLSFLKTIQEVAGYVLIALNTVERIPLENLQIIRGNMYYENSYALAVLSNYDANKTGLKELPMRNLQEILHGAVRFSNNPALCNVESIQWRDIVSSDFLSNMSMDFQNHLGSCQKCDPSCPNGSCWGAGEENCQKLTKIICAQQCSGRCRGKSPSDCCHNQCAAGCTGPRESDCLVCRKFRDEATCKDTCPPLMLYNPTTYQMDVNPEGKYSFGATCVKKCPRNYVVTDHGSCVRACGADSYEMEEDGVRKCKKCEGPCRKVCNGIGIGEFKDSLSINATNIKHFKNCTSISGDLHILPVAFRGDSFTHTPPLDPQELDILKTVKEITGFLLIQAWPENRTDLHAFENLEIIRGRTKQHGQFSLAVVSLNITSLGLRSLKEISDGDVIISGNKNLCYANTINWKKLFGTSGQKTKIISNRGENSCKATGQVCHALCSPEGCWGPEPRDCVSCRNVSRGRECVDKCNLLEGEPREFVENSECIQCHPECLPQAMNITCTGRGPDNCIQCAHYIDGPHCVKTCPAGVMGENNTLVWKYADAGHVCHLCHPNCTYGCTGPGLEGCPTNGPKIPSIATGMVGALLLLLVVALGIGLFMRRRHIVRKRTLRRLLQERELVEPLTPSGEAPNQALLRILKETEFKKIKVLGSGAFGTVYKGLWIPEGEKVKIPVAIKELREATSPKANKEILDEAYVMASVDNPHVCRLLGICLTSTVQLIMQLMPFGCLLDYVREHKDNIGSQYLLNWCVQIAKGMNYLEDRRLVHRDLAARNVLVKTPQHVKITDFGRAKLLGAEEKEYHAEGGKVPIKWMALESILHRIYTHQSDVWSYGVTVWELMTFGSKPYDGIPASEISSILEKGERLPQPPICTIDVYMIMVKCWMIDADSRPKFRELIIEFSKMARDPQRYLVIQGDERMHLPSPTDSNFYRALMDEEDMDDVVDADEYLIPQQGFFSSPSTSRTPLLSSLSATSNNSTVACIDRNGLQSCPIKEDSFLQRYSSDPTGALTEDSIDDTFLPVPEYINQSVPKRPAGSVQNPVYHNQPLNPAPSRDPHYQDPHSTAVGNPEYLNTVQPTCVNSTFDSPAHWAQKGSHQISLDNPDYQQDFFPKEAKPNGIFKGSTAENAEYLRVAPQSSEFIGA
Procedure, shortened: as §1

Ba/F3 stable cells [4] = target: T4, Ba/F3 stable cells (Homo sapiens, UniProt P04626, DUP772-775, cells depend on it); details: Ba/F3-HER2 A775-G776insYVMA cells
T4 construct: EC50 Ba/F3-HER2 A775-G776insYVMA; other: Ba/F3-HER2 A775-G776insYVMA cells, 72 h, CCK-8
Procedure, shortened: as §1

Ba/F3 stable cells [5] = target: T5, Ba/F3 stable cells (Homo sapiens, UniProt P00533, DUP771-773, cells depend on it); details: Ba/F3-EGFR H773-V774insNPH cells
T5 construct: EC50 Ba/F3-EGFR H773-V774insNPH; other: Ba/F3-EGFR H773-V774insNPH cells, 72 h, CCK-8
T5 sequence (P00533 with tags, fused parts or gaps DUP771-773): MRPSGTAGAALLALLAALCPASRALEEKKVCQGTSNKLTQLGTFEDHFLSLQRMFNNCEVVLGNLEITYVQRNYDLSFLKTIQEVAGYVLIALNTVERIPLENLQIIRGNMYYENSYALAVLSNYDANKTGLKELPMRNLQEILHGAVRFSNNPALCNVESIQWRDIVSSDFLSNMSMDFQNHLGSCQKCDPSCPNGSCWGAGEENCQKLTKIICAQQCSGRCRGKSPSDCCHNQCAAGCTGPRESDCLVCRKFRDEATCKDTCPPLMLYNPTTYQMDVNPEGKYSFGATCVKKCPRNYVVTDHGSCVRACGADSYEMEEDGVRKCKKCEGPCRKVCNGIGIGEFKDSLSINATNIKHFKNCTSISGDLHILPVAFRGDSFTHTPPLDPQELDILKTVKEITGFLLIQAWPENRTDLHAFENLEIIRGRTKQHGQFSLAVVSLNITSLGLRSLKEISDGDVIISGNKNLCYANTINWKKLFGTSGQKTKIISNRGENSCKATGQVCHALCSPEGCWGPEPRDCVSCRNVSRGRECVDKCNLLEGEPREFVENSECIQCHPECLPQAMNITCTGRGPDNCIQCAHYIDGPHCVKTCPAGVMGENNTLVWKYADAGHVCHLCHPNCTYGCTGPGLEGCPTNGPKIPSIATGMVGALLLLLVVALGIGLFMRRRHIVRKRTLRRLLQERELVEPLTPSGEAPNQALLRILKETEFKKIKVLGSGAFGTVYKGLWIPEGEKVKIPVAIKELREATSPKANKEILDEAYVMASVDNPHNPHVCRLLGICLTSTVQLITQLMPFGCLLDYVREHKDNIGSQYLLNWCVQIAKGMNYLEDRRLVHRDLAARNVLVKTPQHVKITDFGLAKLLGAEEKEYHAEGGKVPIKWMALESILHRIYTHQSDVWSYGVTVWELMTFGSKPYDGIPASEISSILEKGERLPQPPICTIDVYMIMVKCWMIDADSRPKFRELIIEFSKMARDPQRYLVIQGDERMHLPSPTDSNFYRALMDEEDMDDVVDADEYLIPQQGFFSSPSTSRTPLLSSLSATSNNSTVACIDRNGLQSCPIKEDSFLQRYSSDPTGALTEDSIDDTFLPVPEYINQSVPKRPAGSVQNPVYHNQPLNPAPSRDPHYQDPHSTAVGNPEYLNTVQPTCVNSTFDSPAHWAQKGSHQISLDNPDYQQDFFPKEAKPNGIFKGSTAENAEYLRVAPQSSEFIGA
Procedure, shortened: as §1

Ba/F3 stable cells [6] = target: T6, Ba/F3 stable cells (Homo sapiens, UniProt P00533, DUP768-770, cells depend on it); details: Ba/F3-EGFR D770-N771insSVD cells
T6 construct: EC50 Ba/F3-EGFR D770-N771insSVD; other: Ba/F3-EGFR D770-N771insSVD cells, 72 h, CCK-8
T6 sequence (P00533 with tags, fused parts or gaps DUP768-770): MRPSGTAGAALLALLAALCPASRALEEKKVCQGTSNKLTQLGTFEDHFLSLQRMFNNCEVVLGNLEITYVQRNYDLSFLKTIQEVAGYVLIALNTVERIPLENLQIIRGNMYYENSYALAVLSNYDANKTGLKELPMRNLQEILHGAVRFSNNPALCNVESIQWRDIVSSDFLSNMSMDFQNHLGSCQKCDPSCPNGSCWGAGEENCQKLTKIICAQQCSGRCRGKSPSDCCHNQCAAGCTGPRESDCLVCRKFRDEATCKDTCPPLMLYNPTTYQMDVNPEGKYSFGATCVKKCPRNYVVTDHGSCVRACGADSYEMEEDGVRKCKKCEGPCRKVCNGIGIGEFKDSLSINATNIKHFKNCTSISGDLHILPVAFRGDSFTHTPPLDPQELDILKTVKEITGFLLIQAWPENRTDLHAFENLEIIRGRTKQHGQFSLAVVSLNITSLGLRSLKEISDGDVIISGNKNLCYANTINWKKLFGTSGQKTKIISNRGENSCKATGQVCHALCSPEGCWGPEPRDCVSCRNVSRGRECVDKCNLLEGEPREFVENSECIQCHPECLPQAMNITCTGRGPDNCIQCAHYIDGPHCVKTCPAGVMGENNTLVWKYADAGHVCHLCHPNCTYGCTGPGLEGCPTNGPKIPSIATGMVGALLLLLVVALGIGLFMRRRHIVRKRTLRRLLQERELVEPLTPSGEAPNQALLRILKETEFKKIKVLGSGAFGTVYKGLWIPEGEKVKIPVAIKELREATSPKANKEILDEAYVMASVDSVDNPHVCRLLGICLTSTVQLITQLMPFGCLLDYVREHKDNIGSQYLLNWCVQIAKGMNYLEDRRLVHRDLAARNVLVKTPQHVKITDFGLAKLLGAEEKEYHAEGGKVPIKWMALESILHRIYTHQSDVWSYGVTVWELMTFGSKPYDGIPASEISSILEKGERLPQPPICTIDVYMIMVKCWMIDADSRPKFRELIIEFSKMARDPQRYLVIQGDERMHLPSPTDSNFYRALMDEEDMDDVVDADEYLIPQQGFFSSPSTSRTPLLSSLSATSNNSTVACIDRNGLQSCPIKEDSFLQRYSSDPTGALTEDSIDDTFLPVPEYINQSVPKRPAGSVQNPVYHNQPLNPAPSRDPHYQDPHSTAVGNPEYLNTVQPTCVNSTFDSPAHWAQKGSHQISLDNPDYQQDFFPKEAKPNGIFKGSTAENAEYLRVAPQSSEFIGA
Procedure, shortened: as §1

C=CS(=O)(=O)NC1CC(Oc2cc3c(Nc4ccc(Cl)c(Cl)c4F)ncnc3cc2OC)C1 (stereo not drawn) [Compound 191, N-(3-((4-((3,4-dichloro-2-fluorophenyl)amino)-7-methoxyquinazolin-6-yl)oxy)cyclobutyl)ethenesulfonamide]
EC50 (Ba/F3 stable cells [1]): ≤ 200 nM
EC50 (Ba/F3 stable cells [2]): ≤ 200 nM
EC50 (Ba/F3 stable cells [3]): ≤ 200 nM
EC50 (Ba/F3 stable cells [4]): > 1000 nM
EC50 (Ba/F3 stable cells [5]): ≤ 200 nM
EC50 (Ba/F3 stable cells [6]): ≤ 200 nM

C=CS(=O)(=O)N1CCC(Oc2cc3c(Nc4ccc(Cl)c(Cl)c4F)ncnc3cc2OC)CC1 [Compound 192, N-(3,4-dichloro-2-fluorophenyl)-7-methoxy-6-((1-(vinylsulfonyl)piperidin-4-yl)oxy)quinazolin-4-amine]
EC50 (Ba/F3 stable cells [1]): ≤ 200 nM
EC50 (Ba/F3 stable cells [2]): ≤ 200 nM
EC50 (Ba/F3 stable cells [3]): ≤ 200 nM
EC50 (Ba/F3 stable cells [4]): 200 to 1000 nM
EC50 (Ba/F3 stable cells [5]): ≤ 200 nM
EC50 (Ba/F3 stable cells [6]): > 1000 nM

C=CS(=O)(=O)N1CCC(Oc2cc3c(C(=O)c4ccc(Cl)c(Cl)c4F)ncnc3cc2OC)CC1 [Compound 193, (3,4-dichloro-2-fluorophenyl)(7-methoxy-6-((1-(vinylsulfonyl)piperidin-4-yl)oxy)quinazolin-4-yl)methanone]
EC50 (Ba/F3 stable cells [1]): 200 to 1000 nM
EC50 (Ba/F3 stable cells [2]): ≤ 200 nM
EC50 (Ba/F3 stable cells [3]): 200 to 1000 nM
EC50 (Ba/F3 stable cells [4]): > 1000 nM
EC50 (Ba/F3 stable cells [5]): 200 to 1000 nM
EC50 (Ba/F3 stable cells [6]): > 1000 nM

COc1cc2ncnc(Nc3ccc(Cl)c(Cl)c3F)c2cc1OC1CCN(C#N)CC1 [Compound 194, 4-((4-((3,4-dichloro-2-fluorophenyl)amino)-7-methoxyquinazolin-6-yl)oxy)piperidine-1-carbonitrile]
EC50 (Ba/F3 stable cells [1]): ≤ 200 nM
EC50 (Ba/F3 stable cells [2]): ≤ 200 nM
EC50 (Ba/F3 stable cells [3]): > 1000 nM
EC50 (Ba/F3 stable cells [4]): > 1000 nM
EC50 (Ba/F3 stable cells [5]): 200 to 1000 nM
EC50 (Ba/F3 stable cells [6]): > 1000 nM

COc1cc2ncnc(Nc3ccc(Cl)c(Cl)c3F)c2cc1C1CN(C#N)C1 [Compound 195, 3-(4-((3,4-dichloro-2-fluorophenyl)amino)-7-methoxy-quinazolin-6-yl)azetidine-1-carbonitrile]
EC50 (Ba/F3 stable cells [1]): > 1000 nM
EC50 (Ba/F3 stable cells [2]): 200 to 1000 nM
EC50 (Ba/F3 stable cells [3]): 200 to 1000 nM
EC50 (Ba/F3 stable cells [4]): 200 to 1000 nM
EC50 (Ba/F3 stable cells [5]): > 1000 nM
EC50 (Ba/F3 stable cells [6]): > 1000 nM

COc1cc2ncnc(Nc3ccc(Cl)c(Cl)c3F)c2cc1OC1CC(N(C)C#N)C1 (stereo not drawn) [Compound 196, N-(3-((4-((3,4-dichloro-2-fluorophenyl)amino)-7-methoxy-quinazolin-6-yl)oxy)cyclobutyl)-N-methylcyanamide]
EC50 (Ba/F3 stable cells [1]): ≤ 200 nM
EC50 (Ba/F3 stable cells [2]): ≤ 200 nM
EC50 (Ba/F3 stable cells [3]): > 1000 nM
EC50 (Ba/F3 stable cells [4]): 200 to 1000 nM
EC50 (Ba/F3 stable cells [5]): 200 to 1000 nM
EC50 (Ba/F3 stable cells [6]): 200 to 1000 nM

COc1cc2ncnc(Nc3ccc(Cl)c(Cl)c3F)c2cc1C1=CCCN(C#N)C1 [Compound 197, 5-(4-((3,4-dichloro-2-fluorophenyl)amino)-7-methoxy-quinazolin-6-yl)-3,6-dihydropyridine-1(2H)-carbonitrile]
EC50 (Ba/F3 stable cells [1]): > 1000 nM
EC50 (Ba/F3 stable cells [2]): 200 to 1000 nM
EC50 (Ba/F3 stable cells [3]): > 1000 nM
EC50 (Ba/F3 stable cells [4]): > 1000 nM
EC50 (Ba/F3 stable cells [5]): > 1000 nM
EC50 (Ba/F3 stable cells [6]): > 1000 nM

COc1cc2ncnc(Nc3ccc(Cl)c(Cl)c3F)c2cc1OC1CCCN(C#N)C1 (stereo not drawn) [Compound 198, 3-((4-((3,4-dichloro-2-fluorophenyl)amino)-7-methoxy-quinazolin-6-yl)oxy)piperidine-1-carbonitrile]
EC50 (Ba/F3 stable cells [1]): 200 to 1000 nM
EC50 (Ba/F3 stable cells [2]): ≤ 200 nM
EC50 (Ba/F3 stable cells [3]): > 1000 nM
EC50 (Ba/F3 stable cells [4]): > 1000 nM
EC50 (Ba/F3 stable cells [5]): 200 to 1000 nM
EC50 (Ba/F3 stable cells [6]): > 1000 nM

C=CC(=O)N1CCC(Oc2c(OC)cc3ncnc4c3c2NC(=O)N4c2ccc(Cl)c(Cl)c2F)CC1 [Compound 199, 9-((1-acryloylpiperidin-4-yl)oxy)-3-(3,4-dichloro-2-fluorophenyl)-8-methoxy-1H-pyrimido[4,5,6-de]quinazolin-2(3H)-one]
EC50 (Ba/F3 stable cells [1]): 200 to 1000 nM
EC50 (Ba/F3 stable cells [2]): ≤ 200 nM
EC50 (Ba/F3 stable cells [3]): 200 to 1000 nM
EC50 (Ba/F3 stable cells [4]): 200 to 1000 nM
EC50 (Ba/F3 stable cells [5]): 200 to 1000 nM
EC50 (Ba/F3 stable cells [6]): 200 to 1000 nM
